# Where two headings read alike, the source gives them in different places.
# Legend:
# CB2 receptor = CB2 receptor (Homo sapiens, UniProt P34972); test: CB2 binding assay
# visceral pain = test: Visceral pain, acetic acid induced writhing responses; type: in vivo, ICR mice; conditions: for number of writhing responses: alone or combined with 0.5 mg/kg CPZ; for reduction of writhing responses as compared to vehicle treated animals: second study
# Experimental: For the i.v. part of the study, compounds were dissolved in CREMOPHOR®:Ethanol and diluted 1:20 in saline prior to injection, fifteen minutes before pain induction. When compounds were delivered per os, they were dissolved in phosphate buffer or in CREMOPHOR®:Ethanol as previously described and administered 1 hour before pain induction. Each treatment group, except for controls comprising at least 30 animals, was composed of at least 6 animals. Fifteen or sixty minutes later, depending on the route selected for drug administration, the mice were injected i.p. with 10 ml/kg of 0.6% acetic acid and the number of visceral pain related behaviors (writhing, stretching, contractions of the abdomen accompanied by an elongation of the body and extension of the hind limbs) is counted over a period of 5 minutes, starting 5 minutes after the acetic acid administration. These visceral pain related behaviors are globally defined as writhing responses (WR). The results are expressed as mean number of writhing responses±SEM. Data were analyzed using analysis of variance (ANOVA) followed by post-hoc Fisher test. A value of p<0.05 was considered to be statistically significant and is indicated on the figure by an asterisk over the relevant treatment group.
# The following results were obtained at 2 mg/kg i.v. of test compounds or, in the case of the study performed with cannabinoid receptor antagonists, 1 mg/kg test compound or antagonist alone and 1 mg/kg test compound+1 mg/kg antagonist. In a separate study, it was shown that analgesic activity of compounds of the invention was dose related.
# iNOS = iNOS gene expression in LPS activated RAW 264.7 macrophages (real-time RT-PCR); type: cell-based, mouse
# Experimental: RAW 264.7 macrophages, a mouse cell line (ATCC # TIB 71), were grown in Dulbecco's modified Eagle's medium (DMEM) with 4 mM L-glutamine adjusted to contain 1.5 g/L sodium bicarbonate, 4.5 g/L glucose, and 10% heat inactivated fetal bovine serum. Cells were grown in tissue culture flasks and seeded at appropriate density into 6 wells tissue culture plates. Four million Raw cells in half a milliliter were stimulated with 1 μg/ml Lipopolysaccharide E. coli 055:B5 (DIFCO Laboratories). The mouse macrophages were pre-treated for one hour with controls or 10 μM of test compounds, and later on activated with LPS. RNA samples were extracted from the cells 3 hrs after activation and iNOS gene expression levels were analyzed by real-time RT-PCR as previously described. For western blot analysis, compounds were tested at 1, 5 and 10 μM and cells were harvested 24 hrs after LPS stimulation. Supernatant were collected and NO secretion was analyzed using ELISA. Cells were washed 3 times with cold PBS, scrapped and lyzed in 100 μl cell lysis buffer containing 20 mM HEPES, pH 7.6, 150 mM NaCl, 1.5 mM MgCl2, 0.2 mM EDTA, 1% Triton X-100, 10% glycerol, 1 mM DTT, 1 mM PMSF, 10 μg/ml aprotinin. 5 µg/ml leupeptin, 10 mM p-nitrophenyl phosphate, 100 mM β-glycerophosphate, 1 mM sodium fluoride, and 0.1 μM sodium orthovanadate. Cells were lyzed on ice for 10 minutes before further processing.
# The results of this experiment are expressed as fold activation of iNOS over non-activated macrophages, after normalization to cyclophilin A expression. Compound 18A inhibits 63% of iNOS gene expression, and compounds 18B, 18E and 18F inhibit 55%, 25% and 100% respectively. […] This surprising observation strengthen the fact that compounds of the invention, though chemically related, have distinct and unexpected properties.
# [1] = Actual solubility in aqueous buffers / cosolvent (HPLC, spectrophotometer); type: physicochemical; conditions: for solubility: thermodynamic from solid
# Experimental: The actual solubility of certain compounds of the invention was assessed in aqueous buffers and final concentration of compounds was determined using HPLC and spectrophotometer methodologies. […] Therefore, compounds that were designed following the same rational yielded unexpectedly divergent outcome, for instance in connection with solubility in aqueous solutions.
# It should be noted that following lyophilization compound 18F could be dissolved in 80 mM phosphate buffer at pH 6.9 even more efficiently at concentrations up to 60 mg/ml, about two order of magnitudes higher than expected.
# Approximately 11 g of compound 18F were lyophilized in one lyophilization cycle. A cosolvent mixture comprising 38.6% w/v of compound 18F was divided into several dishes to fit the lyophilization chamber. As a result of lyophilization, a dry product with improved physical properties such as flowability and less stickiness was obtained.
# 400 Gene Array = test: Gene array analysis of spinal cords, MOG induced EAE; type: in vivo, mouse; conditions: out of the 400 genes tested
# Experimental: In an additional study, the gene expression profiling was performed using a 400 Gene Array series kit of SuperArray Bioscience Corporation according to manufacturer protocol and RNA extracted from spinal cords of treated or untreated animals, as above described. The scanned data were converted to mRNA expression levels and analyzed using two softwares, ScanAlayze and GEArray Analyzer. […] The genes so identified will be further analyzed by real time RT-PCR at other time points during disease progression. It is interesting to note that the genes whose expression is altered in MOG induced EAE animals following treatment with compounds of the invention broadly speaking encode for proteins involved in the immune system, such as STAT proteins which are involved in signal transduction of several cytokines and growth factors, JAK kinases, β2-microglobulin, TNF-receptor superfamily, calmodulins, and cyclin-dependent kinases.
# Chain of CB2 receptor (P34972 whole entry): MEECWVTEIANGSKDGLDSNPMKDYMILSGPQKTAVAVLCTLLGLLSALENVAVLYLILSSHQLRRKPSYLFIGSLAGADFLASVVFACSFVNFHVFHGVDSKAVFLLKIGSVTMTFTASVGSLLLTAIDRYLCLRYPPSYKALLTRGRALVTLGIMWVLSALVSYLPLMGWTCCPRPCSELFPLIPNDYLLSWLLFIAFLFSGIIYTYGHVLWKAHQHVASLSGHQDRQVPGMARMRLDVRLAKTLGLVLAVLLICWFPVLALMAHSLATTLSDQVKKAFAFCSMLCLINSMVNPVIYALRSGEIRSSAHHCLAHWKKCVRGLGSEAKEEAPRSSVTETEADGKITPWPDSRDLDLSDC
smiles,measurement,setting,value
"CCCCCCC(C)(C)c1cc(O)c([C@H]2CC(=O)C3CC2C3(C)C)c(OC(=O)/C=C/C(=O)O)c1 (single isomer, unassigned; (-)) [Compound 18F, (−)-4-{4-[1,1-Dimethylheptyl]-2-fumarate-6-hydroxy-phenyl}-6,6-dimethyl-bicyclo[3.1.1]heptan-2-one]",IC50,CB2 receptor,9 nM
same,number of writhing responses,visceral pain; 0.5 mg/kg compound 18F i.v.,10
same,reduction of writhing responses as compared to vehicle treated animals,visceral pain; 0.5 mg/kg i.v.,64%
same,number of writhing responses,visceral pain; 1 mg/kg compound 18F i.v.,9
same,inhibition of the number of writhing responses,visceral pain; 1 mg/kg i.v.,71%
same,effect of addition of CB1 antagonist on analgesic activity,visceral pain; 1 mg/kg i.v. + 1 mg/kg SR141716A,only partially reversed
same,effect of addition of CB2 antagonist on analgesic activity,visceral pain; 1 mg/kg i.v. + 1 mg/kg SR144528,significantly reversed
same,inhibition of writhing responses as compared to vehicle treated group,visceral pain; 2 mg/kg i.v.,94%
same,reduction of writhing responses as compared to vehicle treated animals,visceral pain; 2 mg/kg i.v.,98%
same,inhibition of writhing responses,visceral pain; 10 mg/kg p.o. in CREMOPHOR®:Ethanol,71%
same,inhibition of pain response as compared to untreated animals,visceral pain; 10 mg/kg p.o. in phosphate buffer,61%
same,dose from which reduction of writhing responses was significant,visceral pain; p.o. in phosphate buffer,10 mg/kg
same,inhibition of writhing responses,"visceral pain; p.o. in phosphate buffer, highest dose tested (5 to 60 mg/kg)",93%
same,effect of CB1 or CB2 antagonists on iNOS inhibiting activity,iNOS; 5 μM of SR-141716 and SR-144528,only blocked by CB2 antagonists
same,inhibition of iNOS gene expression,"iNOS; 10 μM, 1 h pre-treatment, 3 hrs after LPS activation",100%
same,solubility,"[1]; 80 mM phosphate buffer, aqueous buffer, 80 mM phosphate buffer, read-out: solubility of non-lyophilized material",~10 mg/mL
same,solubility,"[1]; 80 mM phosphate buffer, pH 6.9, aqueous buffer, lyophilized, 80 mM phosphate buffer, pH 6.9, read-out: solubility following lyophilization",≤ 60 mg/mL
same,solubility,"[1]; 80 mM phosphate buffer, pH 7.8, aqueous buffer, 80 mM phosphate buffer, pH 7.8, read-out: actual solubility",≤ 12 mg/mL
same,actual solubility higher than expected,"[1]; 80 mM phosphate buffer, pH 7.8 vs calculated",about 20 fold
same,dissolution in organic cosolvent solution,[1]; tert.butanol and water 62.5:32.5 (v/v),up to 80 mg/ml
same,genes down-regulated or up-regulated by more than 1.5 fold upon treatment,400 Gene Array,twenty
